Data on 34 compounds can be found in a melting point compilation (Tetko et al.; mined from patent text by program, amines drawn as free bases though some values may be those of a salt).

Each structure is given as a SMILES string.

Usually melting point stands for the temperature of the solid-liquid transition. Compound `CC(C)NC(COc1ccccc1C(=O)Nc1cccc2[nH]ccc12)NC(C)C` came in with a melting point of 180 °C.
For `COc1ccc(CCN(C)CCCN(C(C)C)S(=O)(=O)c2ccc(Cl)c(Cl)c2)cc1OC`, the melting point is 62 to 64 °C.
Under `O=C(NCCC(Nc1ccccc1)c1ccccc1)c1ccccc1` (centres undefined) stands 120 to 121 °C.
Under `COC1(c2ccc(C(C)(C)C)cc2)CC1C(=O)N[C@H](C)c1ccc(NS(C)(=O)=O)c(C)c1` (some centres undefined) stands 231 °C; under `CCC(=O)C(CCCOc1ccc2c(c1)OCO2)C(=O)CC`, 68 °C.
With `CCCn1c(=O)c2[nH]c(C)nc2n(CCC)c1=O` the figure was 202 to 203 °C; with `CCOC(=O)CC(=O)c1cc(F)c(Br)cc1F`, 51 to 53 °C; with `COc1cc(-c2cc(O)c(SCCc3ccccc3)c(=O)o2)ccc1OCc1ccccc1`, 114 to 115 °C.
Take `COc1ccc(CNC(=O)c2cc3c(=O)n(CCS(=O)(=O)c4ccccc4)c(=O)n(C)c3s2)cc1`: the melting point was in the range of 118 to 121 °C.
With `O=C(O)c1ccc(OCCCCCCc2cccc(O)c2O)cc1O` the figure was 179 to 180 °C; with `COc1ccc(-c2ccc(C(=O)O)cc2)cc1-c1ccc2c(c1)C(C)(C)CCC2(C)C`, 251 to 255 °C.
With `ClCc1cc2cccnc2s1` the figure was 47 to 49 °C.
`N=C1NCCCN1Cc1ccc(Cl)nc1` had a melting point of 220 °C.
Under `COC(=O)[C@@H]1C[C@H](OS(C)(=O)=O)C(=O)[C@H]2[C@@]1(C)CC[C@H]1C(=O)O[C@H](c3ccoc3)C[C@]21C` stands 147 to 150 °C.
Regarding `C=CCSc1nnc(OC)c2c1CCCC2`, the melting point lay in the range of 46 to 48 °C.
With `CC(C)(C)c1cc(C=Cc2ccccc2NC(=O)NC23CC4CC(CC(C4)C2)C3)cc(C(C)(C)C)c1O` the figure was 205 to 211 °C; with `CC1=C(C)c2cc(Br)ccc2Oc2ccccc21`, 112 to 114 °C.
With `Cc1c(C)c2c(c(C)c1O)CC[C@](C)(C(=O)N[C@H]1CCOC1O)O2` (some centres undefined) the figure was 67 to 70 °C; with `Cc1ncnn1-c1cc(F)ccc1CNC(=O)c1nc2n(c(=O)c1OCc1ccccc1)CCN2c1ccccc1`, 181 °C.
Regarding `C#CCN1C(=O)COc2cc(F)c(-c3ncnc(C(F)(F)F)c3Cl)cc21`, the melting point lay in the range of 158 to 159 °C.
With `CCOC(=O)c1[nH]cnc1CC` the figure was 170 to 172 °C; with `S=P(SC1CCCCC1)(C1CCCCC1)C1CCCCC1`, 82 to 85 °C; with `COc1ccc2c(c1)CCC1C2=CCC2(C)C(=O)CCC12` (centres undefined), 139 to 143 °C.
Under `COc1cc2c(cc1OC)CN(CC(O)CC1(c3noc4cc(F)ccc34)CCNCC1)CC2` (centres undefined) stands 153 to 154 °C.
In turn, `CCCn1ccn(-c2ccc(N3CCN(c4ccc(OC)cc4)CC3)cc2)c1=O` came in with a melting point of 184 °C.
Under `CN1Cc2c(C(=O)N3CCN(C(=O)c4ncn5c4CN(C)C(=O)c4cc(Cl)ccc4-5)CC3)ncn2-c2ccc(Cl)cc2C1=O` stands 367 to 374 °C.
With `Cc1cc(Cl)c(-n2nc(C)n(C(F)F)c2=O)cc1O` the figure was 154 to 156 °C.
Under `CC(C(=O)N(C)C)n1ccc(-c2cc(Cl)ccc2Cl)n1` (centres undefined) stands 73.5 to 76.5 °C.
Consider `S=c1[nH]nc(Cc2ccccc2Nc2c(Cl)cccc2Cl)o1`, for which the melting point is 168 to 170 °C.
Under `O[C@@H]1CN=C(c2ccoc2)O[C@H]1c1ccccc1` (racemic) stands 160 °C; under `CCn1c(=NC(C)=O)c(-c2cc(OC)cc(OC)c2)cc2cnc(SC)nc21`, 145 to 150 °C; under `COc1ccc2c(c1)CCC1CCNC(=O)C(CC(C)N(Cc3ccccc3)C(C)C)=C21` (centres undefined), 205 to 207 °C.
With `N#CCc1cc(Br)c(C(=O)c2ccc(Cl)cc2)[nH]1` the figure was 185 to 186 °C.
Under `CN(C)c1ccc2c(c1)c(=O)[nH]c(=O)n2CCCCN1CCC(OC(c2ccccc2)c2ccccc2)CC1` stands 165 to 167 °C.
